# “Also recorded” adds a separate entry of the source.
# What was measured:
# NALM 6 cells [1] = assay type: binding, human
# EBI1 [2] = target: T1, EBI1 (Homo sapiens, UniProt P32248)
# T1 sequence (P32248 25-378): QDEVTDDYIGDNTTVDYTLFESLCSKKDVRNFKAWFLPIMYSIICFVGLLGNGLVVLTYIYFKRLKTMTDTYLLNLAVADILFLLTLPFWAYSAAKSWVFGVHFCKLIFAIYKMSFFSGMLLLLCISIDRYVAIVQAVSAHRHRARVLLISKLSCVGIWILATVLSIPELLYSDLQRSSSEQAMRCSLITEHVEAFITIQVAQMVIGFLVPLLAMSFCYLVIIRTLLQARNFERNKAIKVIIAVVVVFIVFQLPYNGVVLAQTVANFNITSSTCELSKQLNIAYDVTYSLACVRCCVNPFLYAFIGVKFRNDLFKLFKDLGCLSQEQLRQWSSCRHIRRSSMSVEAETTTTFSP
# From the text: (§1) Data are plotted as the concentration of free ^3 H-DPDPE (x-axis) vs specific binding of ^3 H-DPDPE (y-axis).
# opiate μ-receptor = conditions: sub-antinociceptive doses; cited from earlier work
# EBI1 [3] = target: T1, EBI1; assay: biochemical
# From the text: as §1
# NALM 6 cells [4] = assay: Migration (chemotaxis) of NALM 6 pre-B ALL cells; assay type: cell-based, human; conditions: for % Response (with/without naloxone): 90 min, 10 µM
# NALM 6 cells [5] = assay: Light scatter analysis of morphological response of NALM 6 cells; assay type: cell-based, human
# Method: FIG. 2, Panels A and B. Methionine-enkephalin induces a morphological change in NALM 6 cells. […] Analysis of forward and right angle light scatter was performed using a Becton Dickinson FACS SCAN flow cytometer as described (Sklar et al., 1984). Histograms of light scatter were obtained by analyzing 10,000 cells per sample. Data are expressed as mean channel number (y-axis) vs concentration of MET-ENK (x-axis).
# Forward and right angle light scatter analysis of the morphological response to MET-ENK: The effect of MET-ENK on cell morphology were measured using flow cytometric analysis of forward and right angle light scatter as previously described (Sklar et al., 1984). For these studies 10^6 cells were resuspended in one-ml of PBS, activated by the addition of MET-ENK or maintained in the PBS buffer alone, and then, incubated for 5 minutes at 37° C. […] Samples were analyzed on a Becton Dickinson FACS SCAN flow cytometer with excitation at 488 nm (Sklar et al., 1984). Histograms of light scattering were obtained by analyzing 10,000 cells for each sample. Data analysis was performed using the Lysys System software package.
# LAZ 221 cells = assay: Flow cytometry of surface molecule expression on LAZ 221 cells; assay type: cell-based, human; conditions: LAZ 221, 100 fold excess of naloxone
# Method: FIG. 4, Panels A-C. […] Data are presented as mean fluorescence intensities measured for 10,000 cells labeled with anti-CD9 or CD10 mAb. In Panel A, the NALM 6 Cells were incubated with MET-ENK (10^-7 M) for the times indicated. In Panel B, the LAZ 221 cells were incubated with MET-ENK at the doses indicated for 5 minutes at 37° C. […] The anti-CD9 and anti-CD10 mAb used for these experiments were of the IgG2a isotype.
# Immunofluorescence Staining and Flow Cytometric Analysis of Cell Surface Molecules: Cells were resuspended at 1×10^6 /ml in PBS and then incubated for periods of 5 to 120 minutes at 37° C. with MET-ENK at doses of 0 to 10^-5 M. Incubations were terminated by transferring samples to an ice bath and then pelleting the cells by centrifugation at 1800 rpm for 5 minutes at 4° C.
# Immunofluorescence staining was carried out in 4-ml tubes maintained in an ice water bath. […] Cells were subsequently fixed within a 2% solution of formalin and maintained in the dark at 10° C. until analyzed.
# Flow cytometric analysis was performed using a FACS SCAN Flow Cytometer (Becton Dickinson, Mountain View, Calif.) equipped with a HP9000 Series computer and the Lysys System software analysis package. Data were collected as histograms depicting the fluorescence intensity for 5,000 to 10,000 cells per sample.
# The non-binding IgG1 MOPC myeloma protein, anti-macrophage/monocyte specific CD14 (MO2; IgG2) and anti-T cell specific CD3 (OKT3; IgG2a) mAb were employed as nonreactive controls for measuring the autofluorescence of B cells.
# NALM 6 cells [6] = assay: MET-ENK-FITC binding to NALM 6 cells (flow cytometry, Scatchard); design: species or system human; conditions: 5 μM naloxone
# NALM 6 cells [7] = assay: [Ca^2+ ]i response of NALM 6 / leukemia cells (Indo-1, flow cytometry); assay type: cell-based, human
# Method: FIG. 15, Panels A-C. […] Cells were labeled with Indo-1 as previously described (Rabinovitch et al., 1986), washed twice in serum-free medium and held at 4° C. until flow cytometric analysis. The violet/blue fluorescence ratio was measured using previously described methods (Rabinovitch et al., 1986). Nonstimulated cells (measured in medium, alone) were used to establish a relative violet/blue ratio arbitrarily set at 1.0 as previously described (Rabinovitch). Calibration of [Ca^2+ ]i was carried out as previously described by Rabinovitch et al (1986) using the formula: [formula]
# Rmax values were determined by measuring the maximum shift in indo violet/blue fluorescence for cells treated with 4 μM ionomycin. Rmin was measured as the minimum ratio for the violet blue fluorescence of ionomycin treated cells following the addition of 8 mM EGTA. […] The Kd (effective dissociation constant) was set at 250 nM.
# COS (Vector Control) = assay: cAMP accumulation in COS cells (vector control); assay type: cell-based, monkey; conditions: COS (Vector Control); MET-ENK 0.01 nM, naloxone 10 μM, forskolin 0.1 μM; controls 40.2 and 38.8
# human T cells [8] = assay: Migration of human peripheral blood T cells; assay type: cell-based
# EBI1 [9] = target: T1, EBI1; conditions: COS (EBI 1); MET-ENK 0.01 nM, naloxone 10 μM, forskolin 0.1 μM; controls 61.2 and 63.5
# in vitro = conditions: human, nalm 6 cells
# human T cells [10] = conditions: Heagy et al., 1990; cited from earlier work
# [11] = tested on: lymphocytes and macrophages; conditions: injection into cerebroventricles of rodents; cited from earlier work
# PBMC = conditions: cited from earlier work
# PMN = conditions: Falke and Fischer, 1985; cited from earlier work
# [12] = tested on: freshly isolated lymphocytes and EBV transformed cell lines; conditions: Borboni et al., 1989; cited from earlier work
compound,measurement,setting,value
"CC1(C)SSC(C)(C)[C@@H](NC(=O)[C@@H](N)Cc2ccc(O)cc2)C(=O)NCC(=O)N[C@@H](Cc2ccccc2)C(=O)N[C@H]1C(=O)O [DPDPE, [D-Pen^2,5]enkephalin]","specific binding, % of total",NALM 6 cells [1],50-80%
same,"specific binding, % of total",Jurkat cells,50-60%
same,binding to membranes of COS cells expressing lymphocyte R7G,EBI1 [2],"specific, high affinity binding"
same,effect on morphine antinociception,opiate μ-receptor,enhance the antinociception mediated via the opiate μ-receptor agonist morphine
same,Kd,EBI1 [3],0.2 nM
C=CCN1CC[C@]23c4c5ccc(O)c4O[C@H]2C(=O)CC[C@@]3(O)[C@H]1C5 [Naloxone],% Response (with/without naloxone),"NALM 6 cells [4]; MET-ENK 1 nM, naloxone 10^-5 M",43%
same,% Response (with/without naloxone),"NALM 6 cells [4]; MET-ENK 100 nM, naloxone 10^-5 M",42%
same,effect of naloxone on NALM 6 migration,NALM 6 cells [4]; migration to MET-ENK or spontaneous locomotion,inhibited the migration of NALM 6 cells to MET-ENK; also recorded: Spontaneous locomotion resulting from the random movement of unchallenged cells was equivalent for naloxone treated and nontreated cells
same,"cell counts, migration to MET-ENK with naloxone","NALM 6 cells [4]; naloxone 10^-5 M, MET-ENK 100 nM",1476 cell counts
same,"cell counts, spontaneous locomotion with naloxone","NALM 6 cells [4]; naloxone 10^-5 M, no MET-ENK, without naloxone 1647",1350 cell counts
same,% Response (with/without naloxone),"NALM 6 cells [4]; spontaneous locomotion, naloxone 10^-5 M",82%
same,morphological response (light scatter) of NALM 6 cells,NALM 6 cells [5]; 5 minutes at 37° C.,inhibited by preincubation with naloxone
same,"baseline light scatter, naloxone alone",NALM 6 cells [5]; vs PBS alone,shifted the baseline measurement below that for the control
same,effect on MET-ENK induction of CD9,LAZ 221 cells,totally blocked
same,effect of naloxone on MET-ENK(-FITC) binding,NALM 6 cells [6],in the presence of naloxone this association is decreased; also recorded: blocked
same,[Ca^2+ ]i response,NALM 6 cells [7],inhibited by naloxone
same,cAMP,COS (Vector Control),31.4 fmoles/cell × 10^3
same,human lymphocyte / T cell migration,human T cells [8],blocked the T cell chemotaxis to MET-ENK
same,reversal of agonist binding by naloxone,"Jurkat cells; ^3 H-DADLE, ^3 H-DPDPE, ^3 H-U69,593",a portion of the binding of these highly selective opiate receptor agonists was reversed by naloxone
same,cAMP,EBI1 [9],76.4 fmoles/cell × 10^3
same,viability at 10 µM,in vitro,≥ 96%
β-END: polypeptide β-endorphin,human lymphocyte / T cell migration,human T cells [8],stimulate human lymphocyte migration
same,human T cell migration,human T cells [10],potent stimulants for the migration of isolated human T cells
same,lymphocyte and macrophage migration into ventricles,[11],elicited lymphocyte and macrophage migration into the ventricles
same,blastogenic responses to T and B cell lectins,PBMC; PBMC,augment the blastogenic responses of PBMC to both T and B cell lectins
same,IFN-γ production,PBMC; lectin stimulated PBMC,enhance IFN-γ production
same,onset of PMN morphological response,PMN,≤ 2 minutes
same,sensitivity of binding to naloxone,[12],insensitive to naloxone and not displaced by synthetic peptides containing MET-ENK residues
